# According to ChEMBL document CHEMBL3045692, “Effectiveness of cyproconazole to control Armillaria root rot of apple, walnut and kiwifruit” (Crop Prot, 2012):
# Legend:
# Armillaria mellea [1] = test: Fungicidal activity against Armillaria mellea infected walnut assessed as mycelial growth inhibition at 30 mg/l formulated as Caddy 10WP at 25 degC measured every week for 1 month (reference value: 0%); assay type: functional; conditions: read-out: GI
# Armillaria mellea [2] = test: Fungicidal activity against Armillaria mellea infected kiwifruit assessed as mycelial growth inhibition at 30 mg/l formulated as Caddy 10WP at 25 degC measured every week for 1 month (reference value: 0%); assay type: functional; conditions: read-out: GI
# Armillaria mellea [3] = test: Fungicidal activity against Armillaria mellea infected walnut assessed as mycelial growth inhibition at 25 mg/l formulated as Caddy 10WP at 25 degC measured every week for 1 month (reference value: 0%); assay type: functional; conditions: read-out: GI
# Armillaria mellea [4] = test: Fungicidal activity against Armillaria mellea infected apple assessed as mycelial growth inhibition at 25 mg/l formulated as Caddy 10WP at 25 degC measured every week for 1 month (reference value: 0%); assay type: functional; conditions: read-out: GI
# Armillaria mellea [5] = test: Fungicidal activity against Armillaria mellea infected kiwifruit assessed as mycelial growth inhibition at 20 mg/l formulated as Caddy 10WP at 25 degC measured every week for 1 month (reference value: 0%); assay type: functional; conditions: read-out: GI
# Armillaria mellea [6] = test: Fungicidal activity against Armillaria mellea infected apple assessed as mycelial growth inhibition at 30 mg/l formulated as Caddy 10WP at 25 degC measured every week for 1 month (reference value: 0%); assay type: functional; conditions: read-out: GI
# Armillaria mellea [7] = test: Fungicidal activity against Armillaria mellea infected apple assessed as mycelial growth inhibition at 15 mg/l formulated as Caddy 10WP at 25 degC measured every week for 1 month (reference value: 0%); assay type: functional; conditions: read-out: GI
# Armillaria mellea [8] = test: Fungicidal activity against Armillaria mellea infected walnut assessed as mycelial growth inhibition at 5 mg/l formulated as Caddy 10WP at 25 degC measured every week for 1 month (reference value: 0%); assay type: functional; conditions: read-out: GI
# Armillaria mellea [9] = test: Fungicidal activity against Armillaria mellea infected apple assessed as mycelial growth inhibition at 20 mg/l formulated as Caddy 10WP at 25 degC measured every week for 1 month (reference value: 0%); assay type: functional; conditions: read-out: GI
# Armillaria mellea [10] = test: Fungicidal activity against Armillaria mellea infected apple assessed as mycelial growth inhibition at 5 mg/l formulated as Caddy 10WP at 25 degC measured every week for 1 month (reference value: 0%); assay type: functional; conditions: read-out: GI
# Armillaria mellea [11] = test: Fungicidal activity against Armillaria mellea infected kiwifruit assessed as mycelial growth inhibition at 10 mg/l formulated as Caddy 10WP at 25 degC measured every week for 1 month (reference value: 0%); assay type: functional; conditions: read-out: GI
# Armillaria mellea [12] = test: Fungicidal activity against Armillaria mellea infected walnut assessed as mycelial growth inhibition at 10 mg/l formulated as Caddy 10WP at 25 degC measured every week for 1 month (reference value: 0%); assay type: functional; conditions: read-out: GI
# Armillaria mellea [13] = test: Fungicidal activity against Armillaria mellea infected walnut assessed as mycelial growth inhibition at 15 mg/l formulated as Caddy 10WP at 25 degC measured every week for 1 month (reference value: 0%); assay type: functional; conditions: read-out: GI
# Armillaria mellea [14] = test: Fungicidal activity against Armillaria mellea infected apple assessed as mycelial growth inhibition at Caddy 10WP formulation at 25 degC measured every week for 1 month; assay type: functional, organism-based
# Armillaria mellea [15] = test: Fungicidal activity against Armillaria mellea infected kiwifruit assessed as mycelial growth inhibition at 25 mg/l formulated as Caddy 10WP at 25 degC measured every week for 1 month (reference value: 0%); assay type: functional; conditions: read-out: GI
# Armillaria mellea [16] = test: Fungicidal activity against Armillaria mellea infected walnut assessed as mycelial growth inhibition at 20 mg/l formulated as Caddy 10WP at 25 degC measured every week for 1 month (reference value: 0%); assay type: functional; conditions: read-out: GI
# Armillaria mellea [17] = test: Fungicidal activity against Armillaria mellea infected apple assessed as mycelial growth inhibition at 10 mg/l formulated as Caddy 10WP at 25 degC measured every week for 1 month (reference value: 0%); assay type: functional; conditions: read-out: GI
# Armillaria mellea [18] = test: Fungicidal activity against Armillaria mellea infected kiwifruit assessed as mycelial growth inhibition at 15 mg/l formulated as Caddy 10WP at 25 degC measured every week for 1 month (reference value: 0%); assay type: functional; conditions: read-out: GI
# Armillaria mellea [19] = test: Fungicidal activity against Armillaria mellea infected walnut assessed as mycelial growth inhibition at Caddy 10WP formulation at 25 degC measured every week for 1 month; assay type: functional, organism-based
# Armillaria mellea [20] = test: Fungicidal activity against Armillaria mellea infected kiwifruit assessed as mycelial growth inhibition at 5 mg/l formulated as Caddy 10WP at 25 degC measured every week for 1 month (reference value: 0%); assay type: functional; conditions: read-out: GI
# Armillaria mellea [21] = test: Fungicidal activity against Armillaria mellea infected kiwifruit assessed as mycelial growth inhibition at Caddy 10WP formulation at 25 degC measured every week for 1 month; assay type: functional, organism-based
smiles,measurement,setting,value
CC(C1CC1)C(O)(Cn1cncn1)c1ccc(Cl)cc1 (stereo unspecified) [CYPROCONAZOLE],inhibition of growth at 30 µg/mL,Armillaria mellea [1],100%
same,inhibition of growth at 30 µg/mL,Armillaria mellea [2],100%
same,inhibition of growth at 25 µg/mL,Armillaria mellea [3],100%
same,inhibition of growth at 25 µg/mL,Armillaria mellea [4],100%
same,inhibition of growth at 20 µg/mL,Armillaria mellea [5],100%
same,inhibition of growth at 30 µg/mL,Armillaria mellea [6],100%
same,inhibition of growth at 15 µg/mL,Armillaria mellea [7],98%
same,inhibition of growth at 5 µg/mL,Armillaria mellea [8],41%
same,inhibition of growth at 20 µg/mL,Armillaria mellea [9],100%
same,inhibition of growth at 5 µg/mL,Armillaria mellea [10],56%
same,inhibition of growth at 10 µg/mL,Armillaria mellea [11],86%
same,inhibition of growth at 10 µg/mL,Armillaria mellea [12],73%
same,inhibition of growth at 15 µg/mL,Armillaria mellea [13],95%
same,EC50,Armillaria mellea [14],5.19 µg/mL
same,inhibition of growth at 25 µg/mL,Armillaria mellea [15],100%
same,inhibition of growth at 20 µg/mL,Armillaria mellea [16],100%
same,inhibition of growth at 10 µg/mL,Armillaria mellea [17],89%
same,inhibition of growth at 15 µg/mL,Armillaria mellea [18],100%
same,EC50,Armillaria mellea [19],6.73 µg/mL
same,inhibition of growth at 5 µg/mL,Armillaria mellea [20],47%
same,EC50,Armillaria mellea [21],5.72 µg/mL
